What was measured:
[1] = test system: human ovarian cancer strain OV7; type: cell-based
Procedure, shortened: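 OV7 cells, 250 per well, in DMEM/Ham's F-12 with 5% FBS, 0.5 µg/mL hydrocortisone and 10 µg/mL insulin, grown 7 days at 37°C with serially diluted compound. Viability by CellTiter-Glo luminescence.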

[2] = test system: human lung cancer strain NCI-H441; type: cell-based
Procedure, shortened: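 Readout: […] after the ATP-based reagent. Compound: serial dilutions in dimethyl sulfoxide.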

[3] = target: GDP-bound NRAS wild-type protein (Homo sapiens, UniProt P01111); test: Binding to NRAS by surface plasmon resonance (SPR), KD and KD ratio to KRAS
Procedure, shortened: (§1)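 GDP-bound biotin-Avi RAS captured at ~100–300 RU, 30°C, pH 7.4 HBS containing 10 µM GDP, 10 mM MgCl2, 1 mM DTT, 0.01% Tween 20 and 4% DMSO. KD by 1:1 fitting.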

HRAS wild-type protein = HRAS wild-type protein (Homo sapiens, UniProt P01112); test: Binding to HRAS by surface plasmon resonance (SPR), KD and KD ratio to KRAS
Procedure, shortened: as §1

[4] = test system: human gastric cancer strain SNU-1; type: cell-based
Procedure, shortened: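 SNU-1 gastric cancer cells, 250 cells/well in RPMI-1640 with 10% FBS, glucose, HEPES and sodium pyruvate, plated onto serially diluted compound in DMSO.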

[5] = test system: human gastric cancer strain GSU; type: cell-based
Procedure, shortened: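 Cells seeded at 200 per well in RPMI-1640 with 10% FBS onto serially diluted compound (DMSO) in U-bottom plates. Viability read by CellTiter-Glo luminescence.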

[6] = test system: human pancreatic cancer strain KP4; type: cell-based
Procedure, shortened: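 KP4 pancreatic cancer cells seeded at 500 cells/well in DMEM/Ham's F-12 with 10% FBS onto serially diluted compound. Viability read by CellTiter-Glo luminescence.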

[7] = test system: human colorectal cancer strain GP2d; type: cell-based
Procedure, shortened: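 Cells seeded at 500 cells/well in DMEM with 10% FBS onto serially diluted compound in DMSO, then cultured 7 days at 37°C, 5% CO2. Viability read by CellTiter-Glo luminescence.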

[8] = target: GDP-bound KRAS wild-type protein (Homo sapiens, UniProt P01116); test: Binding to KRAS by surface plasmon resonance (SPR), dissociation constant KD
Procedure, shortened: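 Compound binding is evaluated by SPR single-cycle kinetics, with concentrations added intermittently from low to high for 75 s each. Target surfaces carry GDP-loaded biotinylated Avi-RAS at about 100–300 RU, regenerated after each cycle; temperature 30°C. A 1:1 binding model gives KD.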

[9] = test system: human bladder cancer strain UM-UC-3; type: cell-based
Procedure, shortened: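 UM-UC-3 human bladder cancer cells were seeded at 250 cells/well onto serially diluted compound in MEM with 10% FBS. Viability was read as CellTiter-Glo luminescence.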

[10] = ratio of KD for GDP-bound NRAS wild-type protein to KD for KRAS
[11] = ratio of KD for HRAS wild-type protein to KD for KRAS

Chain of HRAS wild-type protein (P01112 whole entry): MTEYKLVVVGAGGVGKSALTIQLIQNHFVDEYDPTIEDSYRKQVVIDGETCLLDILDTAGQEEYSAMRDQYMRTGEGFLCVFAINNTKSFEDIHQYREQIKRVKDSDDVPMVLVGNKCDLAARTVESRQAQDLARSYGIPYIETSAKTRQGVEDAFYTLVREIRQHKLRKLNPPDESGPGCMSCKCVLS
Chain of GDP-bound KRAS wild-type protein (P01116 1-188 isoform P01116-2): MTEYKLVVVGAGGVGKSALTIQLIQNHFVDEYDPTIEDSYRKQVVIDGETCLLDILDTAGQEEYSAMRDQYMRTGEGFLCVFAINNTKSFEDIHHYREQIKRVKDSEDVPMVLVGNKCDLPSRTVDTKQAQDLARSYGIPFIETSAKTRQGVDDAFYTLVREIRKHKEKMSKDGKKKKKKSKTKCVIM
Chain of GDP-bound NRAS wild-type protein (P01111 whole entry): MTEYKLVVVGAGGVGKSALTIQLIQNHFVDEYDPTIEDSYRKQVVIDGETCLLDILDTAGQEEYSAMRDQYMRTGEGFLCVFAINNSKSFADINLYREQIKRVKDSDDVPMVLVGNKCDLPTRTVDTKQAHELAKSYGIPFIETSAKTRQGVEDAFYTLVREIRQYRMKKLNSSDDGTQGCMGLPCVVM

IC50 [1] [nM]	IC50 [2] [nM]	IC50 [4] [nM]	IC50 [5] [nM]	IC50 [6] [nM]	IC50 [7] [nM]	Kd ([8]; Single Cycle Kinetics) [nM]	IC50 [9] [nM]	Kd ([8]; Single Cycle Kinetics, 1:1 binding model) [nM]	Kd ([8]; 1:1 binding model) [nM]	Structure (SMILES)	NRAS /KRAS [3, 10]	HRAS /KRAS (HRAS wild-type protein; [11])	NRAS /KRAS ([3]; ratio of KD value for GDP-bound NRAS wild-type protein to KD value for KRAS (SPR))	HRAS /KRAS (HRAS wild-type protein; ratio of KD value for HRAS wild-type protein to KD value for KRAS (SPR))
1.6	4.4	2.4	0.5	4	0.7	0.019	0.6			CCC[C@H]1C(=O)N[C@@H]([C@@H](C)CC)C(=O)N(C)CC(=O)N(C)[C@H]2C/C=C\CCN(C2=O)[C@@H](Cc2ccc(C)cc2)C(=O)N(C)CC(=O)N[C@@H](CCc2cc(F)c(C(F)(F)F)c(F)c2)C(=O)N2CC3(CC3)C[C@H]2C(=O)N(C)C2(CCC2)C(=O)N(C)[C@@H](C2CCCC2)C(=O)N(C)[C@H](C(=O)N(C)C)CC(=O)N1C [PP3327]	A (a compound having 10 or more and less than 20 is denoted as A)	A (a compound having 10 or more and less than 20 is denoted as A)		
15.9	5.9	7.4	1.9	8.2	6.9	0.41	6.3			CCO[C@@H]1C[C@H]2C(=O)OC3(CCC3)C(=O)N(C)[C@@H](C3CCCC3)C(=O)N(C)[C@H](C(=O)N(C)C)CC(=O)N(C)[C@@H]([C@@H](C)OC)C(=O)N[C@@H]([C@@H](C)CC)C(=O)N3CCC[C@H]3C(=O)N(C)[C@H]3C/C=C\CCN(C3=O)[C@@H](Cc3ccc(C(F)(F)F)cc3)C(=O)N(C)CC(=O)N[C@@H](CCc3ccc(C(F)(F)F)c(OC)c3)C(=O)N2C1 [PP3374]	A (a compound having 10 or more and less than 20 is denoted as A)	A (a compound having 10 or more and less than 20 is denoted as A)		
7.4	1.1	4.3	0.5	14.2	2.4		4.1	0.027		CCCC[C@H]1C(=O)N[C@@H]([C@@H](C)CC)C(=O)N(C)CC(=O)N(C)[C@H]2C/C=C\CCN(C2=O)[C@@H](Cc2ccc(C(F)(F)F)cc2)C(=O)N(C)CC(=O)N[C@@H](CCc2cc(F)c(C(F)(F)F)c(F)c2)C(=O)N2C[C@H](F)C[C@H]2C(=O)NC2(CC(C)(C)C2)C(=O)N(C)[C@@H](C2CCCC2)C(=O)N(C)[C@H](C(=O)N(C)C)CC(=O)N1C [PP1693, (2S,8S,12R,14S,20S,23S,27S,30S,36S,38Z)-27-butyl-20-cyclopentyl-8-[2-[3,5-difluoro-4-(trifluoromethyl)phenyl]ethyl]-12-fluoro-N,N,3',3',4,19,22,26,32,35-decamethyl-30-[(1S)-1-methylpropyl]-3,6,9,15,18,21,25,28,31,34,42-undecaoxo-2-[[4-(trifluoromethyl)phenyl]methyl]spiro[1,4,7,10,16,19,22,26,29,32,35-undecazatricyclo[34.5.1.0^10,14]dotetracont-38-ene-17,1'-cyclobutane]-23-carboxamide]			AA (a compound having 20 or more is denoted as AA)	A (a compound having 10 or more and less than 20 is denoted as A)
20.4	14.9	26.7	3.2	28.7	12		15.4		0.26	CCC[C@H]1C(=O)N[C@@H]([C@@H](C)CC)C(=O)N(C2CC2)CC(=O)N(C)[C@H]2C/C=C\CCN(C2=O)[C@@H](Cc2ccc(C(F)(F)F)cc2)C(=O)N(C)CC(=O)N[C@@H](CCc2cc(F)c(C(F)(F)F)c(F)c2)C(=O)N2C[C@H](OCC)C[C@H]2C(=O)NC2(CC(C)(C)C2)C(=O)N(C)[C@@H](CC(C)(C)C)C(=O)N(C)[C@H](C(=O)N(C)C)CC(=O)N1C [PP2742]	AA (a compound having 20 or more is denoted as AA)	A (a compound having 10 or more and less than 20 is denoted as A)		

From patent EP4603105A1, “PHARMACEUTICAL COMPOSITION CONTAINING CYCLIC COMPOUND HAVING SELECTIVE KRAS INHIBITORY EFFECT AGAINST HRAS AND NRAS” (CHUGAI SEIYAKU KABUSHIKI KAISHA, priority 2022, dated 2024)
